Laboratory results published in ChEMBL document CHEMBL1201862, “PubChem BioAssay data set” (2004).
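Dose response: 5 concentrations. Exposure: 48 h. Format: 96-well plates. Endpoint: linear interpolation; highest concentration if not reached. Abbreviation: GI50, concentration required for 50% inhibition of growth.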 The source made the active and inactive calls. Rule as the data show it: active = GI50 up to about 1.1 µM and inactive = higher.

Columns and labels:
Test in all cases: NCI tumour cell line growth inhibition, 48 h
[1] = tested on: 786-0
[2] = tested on: A498
[3] = tested on: A549
[4] = tested on: CAKI-1
[5] = tested on: CCRF-CEM
[6] = tested on: COLO 205
[7] = tested on: DLD-1
[8] = tested on: DMS-273
[9] = tested on: EKVX
[10] = tested on: HCC 2998
[11] = tested on: HCT-116
[12] = tested on: HCT-15
[13] = tested on: HL-60
[14] = tested on: HOP-18
[15] = tested on: HOP-92
[16] = tested on: HT-29
[17] = tested on: IGROV-1
[18] = tested on: K562
[19] = tested on: KM-20L2
[20] = tested on: KM12
[21] = tested on: LOX IMVI
[22] = tested on: LXFL 529
[23] = tested on: M14
[24] = tested on: M19-MEL
[25] = tested on: MOLT-4
[26] = tested on: Malme-3M
[27] = tested on: NCI-H226
[28] = tested on: NCI-H23
[29] = tested on: NCI-H460
[30] = tested on: NCI-H522
[31] = tested on: OVCAR-3
[32] = tested on: OVCAR-4
[33] = tested on: OVCAR-5
[34] = tested on: OVCAR-8
[35] = tested on: RPMI-8226
[36] = tested on: RXF 393
[37] = tested on: SF-268
[38] = tested on: SF-295
[39] = tested on: SF-539
[40] = tested on: SK-MEL-28
[41] = tested on: SK-MEL-2
[42] = tested on: SK-MEL-5
[43] = tested on: SK-OV-3
[44] = tested on: SN12C
[45] = tested on: SNB-19
[46] = tested on: SNB-75
[47] = tested on: SNB-78
[48] = tested on: SR
[49] = tested on: SW-620
[50] = tested on: TK-10
[51] = tested on: U-251
[52] = tested on: UACC-257
[53] = tested on: UO-31
[54] = tested on: XF498
[55] = tested on: DMS-114
[56] = tested on: HOP-62
[57] = tested on: MCF7
[58] = tested on: NCI/ADR-RES
[59] = tested on: UACC-62

SMILES: O=C1Cc2ccccc2CCc2ccsc21
- GI50 [1]: > 100 µM (inactive)
- GI50 [2]: > 100 µM (inactive)
- GI50 [3]: > 100 µM (inactive)
- GI50 [4]: > 100 µM (inactive)
- GI50 [5]: > 100 µM (inactive)
- GI50 [6]: > 100 µM (inactive)
- GI50 [7]: > 100 µM (inactive)
- GI50 [8]: > 100 µM (inactive)
- GI50 [9]: > 100 µM (inactive)
- GI50 [10]: > 100 µM (inactive)
- GI50 [11]: > 100 µM (inactive)
- GI50 [12]: > 100 µM
- GI50 [13]: 92.3 µM (inactive)
- GI50 [14]: 70.8 µM (inactive)
- GI50 [15]: 40 µM (inactive)
- GI50 [16]: > 100 µM (inactive)
- GI50 [17]: > 100 µM (inactive)
- GI50 [18]: > 100 µM (inactive)
- GI50 [19]: > 100 µM (inactive)
- GI50 [20]: > 100 µM (inactive)
- GI50 [21]: > 100 µM (inactive)
- GI50 [22]: > 100 µM (inactive)
- GI50 [23]: > 100 µM (inactive)
- GI50 [24]: > 100 µM (inactive)
- GI50 [25]: > 100 µM (inactive)
- GI50 [26]: > 100 µM (inactive)
- GI50 [27]: > 100 µM (inactive)
- GI50 [28]: > 100 µM (inactive)
- GI50 [29]: > 100 µM (inactive)
- GI50 [30]: > 100 µM (inactive)
- GI50 [31]: > 100 µM (inactive)
- GI50 [32]: > 100 µM (inactive)
- GI50 [33]: 31.3 µM (inactive)
- GI50 [34]: > 100 µM (inactive)
- GI50 [35]: > 100 µM (inactive)
- GI50 [36]: > 100 µM (inactive)
- GI50 [37]: > 100 µM (inactive)
- GI50 [38]: > 100 µM (inactive)
- GI50 [39]: > 100 µM (inactive)
- GI50 [40]: > 100 µM (inactive)
- GI50 [41]: > 100 µM (inactive)
- GI50 [42]: > 100 µM (inactive)
- GI50 [43]: > 100 µM (inactive)
- GI50 [44]: > 100 µM (inactive)
- GI50 [45]: > 100 µM (inactive)
- GI50 [46]: 61.2 µM (inactive)
- GI50 [47]: > 100 µM (inactive)
- GI50 [48]: > 100 µM (inactive)
- GI50 [49]: > 100 µM (inactive)
- GI50 [50]: > 100 µM (inactive)
- GI50 [51]: > 100 µM (inactive)
- GI50 [52]: > 100 µM (inactive)
- GI50 [53]: > 100 µM (inactive)
- GI50 [54]: > 100 µM (inactive)

SMILES: CC1=C2C(O)C(C(C)C(=O)N(C)C)CCC2(C)C=CC1=O (configuration not stated)
- GI50 [2]: > 100 µM (inactive)
- GI50 [3]: > 100 µM (inactive)
- GI50 [4]: > 100 µM (inactive)
- GI50 [5]: > 100 µM (inactive)
- GI50 [6]: > 100 µM (inactive)
- GI50 [7]: > 100 µM (inactive)
- GI50 [55]: > 100 µM (inactive)
- GI50 [8]: > 100 µM (inactive)
- GI50 [9]: > 100 µM (inactive)
- GI50 [10]: > 100 µM (inactive)
- GI50 [11]: > 100 µM (inactive)
- GI50 [12]: > 100 µM
- GI50 [13]: > 100 µM (inactive)
- GI50 [14]: > 100 µM (inactive)
- GI50 [56]: > 100 µM (inactive)
- GI50 [15]: > 100 µM (inactive)
- GI50 [16]: > 100 µM (inactive)
- GI50 [17]: > 100 µM (inactive)
- GI50 [18]: > 100 µM (inactive)
- GI50 [19]: > 100 µM (inactive)
- GI50 [20]: > 100 µM (inactive)
- GI50 [21]: > 100 µM (inactive)
- GI50 [24]: > 100 µM (inactive)
- GI50 [57]: > 100 µM (inactive)
- GI50 [25]: > 100 µM (inactive)
- GI50 [27]: > 100 µM (inactive)
- GI50 [28]: > 100 µM (inactive)
- GI50 [29]: > 100 µM (inactive)
- GI50 [30]: > 100 µM (inactive)
- GI50 [58]: > 100 µM (inactive)
- GI50 [31]: > 100 µM (inactive)
- GI50 [32]: > 100 µM (inactive)
- GI50 [33]: > 100 µM (inactive)
- GI50 [34]: > 100 µM (inactive)
- GI50 [35]: > 100 µM (inactive)
- GI50 [36]: > 100 µM (inactive)
- GI50 [37]: > 100 µM (inactive)
- GI50 [38]: > 100 µM (inactive)
- GI50 [39]: > 100 µM (inactive)
- GI50 [40]: > 100 µM (inactive)
- GI50 [41]: > 100 µM (inactive)
- GI50 [42]: > 100 µM (inactive)
- GI50 [43]: > 100 µM (inactive)
- GI50 [44]: > 100 µM (inactive)
- GI50 [45]: > 100 µM (inactive)
- GI50 [46]: > 100 µM (inactive)
- GI50 [47]: > 100 µM (inactive)
- GI50 [49]: > 100 µM (inactive)
- GI50 [51]: > 100 µM (inactive)
- GI50 [52]: > 100 µM (inactive)
- GI50 [59]: > 100 µM (inactive)
- GI50 [53]: > 100 µM (inactive)
- GI50 [54]: > 100 µM (inactive)
